# Test results taken from ChEMBL document CHEMBL1201862, “PubChem BioAssay data set” (2004).
#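 1) Cells in 96-well plates. 2) Compound, 48 h, 5 concentrations. 3) Linear interpolation between surrounding doses. 4) Unreached endpoint = highest concentration. GI50 is the concentration that inhibits growth by half.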 Calls of active or inactive are those of the source. Cut-off read from the data, not from the text of the source: active = GI50 up to about 1.1 µM and inactive = higher.
# Legend:
# Experiment in all cases: NCI tumour cell line growth inhibition, 48 h
# [1] = test system: SF-268
# [2] = test system: DMS-273
# [3] = test system: NCI-H226
# [4] = test system: SW-620
# [5] = test system: COLO 205
# [6] = test system: EKVX
# [7] = test system: M14
# [8] = test system: SF-539
# [9] = test system: OVCAR-3
# [10] = test system: OVCAR-8
# [11] = test system: SNB-75
# [12] = test system: HL-60
# [13] = test system: SN12C
# [14] = test system: A498
# [15] = test system: UO-31
# [16] = test system: CCRF-CEM
# [17] = test system: HCC 2998
# [18] = test system: OVCAR-5
# [19] = test system: XF498
# [20] = test system: NCI-H460
# [21] = test system: RXF 631
# [22] = test system: HT-29
# [23] = test system: OVCAR-4
# [24] = test system: KM12
# [25] = test system: K562
# [26] = test system: SK-MEL-5
# [27] = test system: U-251
# [28] = test system: SNB-78
# [29] = test system: SK-OV-3
# [30] = test system: ACHN
# [31] = test system: SR
# [32] = test system: DMS-114
# [33] = test system: 786-0
# [34] = test system: M19-MEL
# [35] = test system: SF-295
# [36] = test system: NCI-H23
# [37] = test system: MOLT-4
# [38] = test system: UACC-62
# [39] = test system: RXF 393
# [40] = test system: LXFL 529
# [41] = test system: SK-MEL-28
# [42] = test system: A549
# [43] = test system: DLD-1
# [44] = test system: TK-10
# [45] = test system: Malme-3M
# [46] = test system: SNB-19
# [47] = test system: HOP-18
# [48] = test system: LOX IMVI
# [49] = test system: HCT-15
# [50] = test system: IGROV-1
# [51] = test system: RPMI-8226
# [52] = test system: KM-20L2
# [53] = test system: HOP-62
# [54] = test system: SK-MEL-2
# [55] = test system: HCT-116
# [56] = test system: HOP-92
# [57] = test system: UACC-257
# [58] = test system: CAKI-1
# [59] = test system: NCI-H522
smiles,measurement,setting,value
CC(C)CCC1CC2C(=O)N(c3ccccc3)C(=O)C2c2[nH]c3ccccc3c21 (stereo unspecified),GI50,[1],2.05 µM (inactive)
same,GI50,[2],0.281 µM (active)
same,GI50,[3],2.66 µM (inactive)
same,GI50,[4],0.796 µM (active)
same,GI50,[5],1.38 µM (inactive)
same,GI50,[6],1.55 µM (inactive)
same,GI50,[7],0.288 µM (active)
same,GI50,[8],0.711 µM (active)
same,GI50,[9],0.885 µM (active)
same,GI50,[10],0.9 µM (active)
same,GI50,[11],2.22 µM (inactive)
same,GI50,[12],1.11 µM (active)
same,GI50,[13],2.67 µM (inactive)
same,GI50,[14],1.84 µM (inactive)
same,GI50,[15],6.28 µM (inactive)
same,GI50,[16],1.33 µM (inactive)
same,GI50,[17],1.42 µM (inactive)
same,GI50,[18],17.5 µM (inactive)
same,GI50,[19],0.206 µM (active)
same,GI50,[20],1.13 µM (inactive)
same,GI50,[21],1.26 µM (inactive)
same,GI50,[22],3.4 µM (inactive)
same,GI50,[23],4.76 µM (inactive)
same,GI50,[24],1.28 µM (inactive)
same,GI50,[25],0.571 µM (active)
same,GI50,[26],0.347 µM (active)
same,GI50,[27],0.455 µM (active)
same,GI50,[28],3.45 µM (inactive)
same,GI50,[29],1.36 µM (inactive)
same,GI50,[30],6.07 µM (inactive)
same,GI50,[31],3.4 µM (inactive)
same,GI50,[32],0.6 µM (active)
same,GI50,[33],2.88 µM (inactive)
same,GI50,[34],5.2 µM (inactive)
same,GI50,[35],0.509 µM (active)
same,GI50,[36],2.79 µM (inactive)
same,GI50,[37],2.77 µM (inactive)
same,GI50,[38],6.21 µM (inactive)
same,GI50,[39],0.83 µM (active)
same,GI50,[40],6.05 µM (inactive)
same,GI50,[41],4.68 µM (inactive)
same,GI50,[42],0.412 µM (active)
same,GI50,[43],2.18 µM (inactive)
same,GI50,[44],4.53 µM (inactive)
same,GI50,[45],0.871 µM (active)
same,GI50,[46],1.24 µM (inactive)
same,GI50,[47],7.06 µM (inactive)
same,GI50,[48],1.08 µM (active)
same,GI50,[49],2.71 µM
same,GI50,[50],13.4 µM (inactive)
same,GI50,[51],1.08 µM (active)
COc1cc2c(cc1O)[C@H](Cc1ccc(Oc3cc(C[C@H]4c5cc(OC)c(OC)cc5CCN4C)ccc3OC)cc1)NCC2,GI50,[1],11.1 µM (inactive)
same,GI50,[2],19.5 µM (inactive)
same,GI50,[3],12.7 µM (inactive)
same,GI50,[4],11.6 µM (inactive)
same,GI50,[5],17.9 µM (inactive)
same,GI50,[6],> 10 µM (inactive)
same,GI50,[7],1.81 µM (inactive)
same,GI50,[8],10.5 µM (inactive)
same,GI50,[9],10.5 µM (inactive)
same,GI50,[52],10.1 µM (inactive)
same,GI50,[10],14.5 µM (inactive)
same,GI50,[11],6.56 µM (inactive)
same,GI50,[53],> 10 µM (inactive)
same,GI50,[12],12.4 µM (inactive)
same,GI50,[54],17 µM (inactive)
same,GI50,[13],14.8 µM (inactive)
same,GI50,[14],13.7 µM (inactive)
same,GI50,[15],8.75 µM (inactive)
same,GI50,[16],9.64 µM (inactive)
same,GI50,[55],8.11 µM (inactive)
same,GI50,[17],6.62 µM (inactive)
same,GI50,[18],18 µM (inactive)
same,GI50,[19],11.2 µM (inactive)
same,GI50,[20],14.3 µM (inactive)
same,GI50,[21],15.5 µM (inactive)
same,GI50,[22],6.22 µM (inactive)
same,GI50,[23],12.7 µM (inactive)
same,GI50,[24],12.9 µM (inactive)
same,GI50,[25],2.21 µM (inactive)
same,GI50,[27],12 µM (inactive)
same,GI50,[30],11.4 µM (inactive)
same,GI50,[31],7.5 µM (inactive)
same,GI50,[32],18.7 µM (inactive)
same,GI50,[33],12.4 µM (inactive)
same,GI50,[34],22.6 µM (inactive)
same,GI50,[35],11.9 µM (inactive)
same,GI50,[36],11.9 µM (inactive)
same,GI50,[37],3.25 µM (inactive)
same,GI50,[38],17.8 µM (inactive)
same,GI50,[56],5.16 µM (inactive)
same,GI50,[39],3.77 µM (inactive)
same,GI50,[40],13.7 µM (inactive)
same,GI50,[41],16.8 µM (inactive)
same,GI50,[42],17.9 µM (inactive)
same,GI50,[44],> 10 µM (inactive)
same,GI50,[57],15.8 µM (inactive)
same,GI50,[45],22.1 µM (inactive)
same,GI50,[46],16.1 µM (inactive)
same,GI50,[47],17.1 µM (inactive)
same,GI50,[48],8.95 µM (inactive)
same,GI50,[49],7.98 µM
same,GI50,[58],4.08 µM (inactive)
same,GI50,[50],15.2 µM (inactive)
same,GI50,[51],12.9 µM (inactive)
CCN(CC)c1ccc(/N=N/c2ccc([N+](=O)[O-])cc2OC(=O)/C=C/c2ccccc2)c(OC(=O)/C=C/c2ccccc2)c1,GI50,[1],1.93 µM (inactive)
same,GI50,[2],5.5 µM (inactive)
same,GI50,[3],1.44 µM (inactive)
same,GI50,[4],7.57 µM (inactive)
same,GI50,[5],> 100 µM (inactive)
same,GI50,[6],5.58 µM (inactive)
same,GI50,[7],12.7 µM (inactive)
same,GI50,[8],2.89 µM (inactive)
same,GI50,[9],3.18 µM (inactive)
same,GI50,[10],6.27 µM (inactive)
same,GI50,[11],8.04 µM (inactive)
same,GI50,[53],2.12 µM (inactive)
same,GI50,[12],2.11 µM (inactive)
same,GI50,[54],> 95.3 µM (inactive)
same,GI50,[13],20.6 µM (inactive)
same,GI50,[14],> 26.9 µM (inactive)
same,GI50,[15],4.45 µM (inactive)
same,GI50,[16],3.02 µM (inactive)
same,GI50,[55],3.55 µM (inactive)
same,GI50,[17],12.7 µM (inactive)
same,GI50,[19],6.82 µM (inactive)
same,GI50,[20],0.7 µM (active)
same,GI50,[21],> 100 µM (inactive)
same,GI50,[22],> 100 µM (inactive)
same,GI50,[23],21 µM (inactive)
same,GI50,[24],3.83 µM (inactive)
same,GI50,[25],> 68.9 µM (inactive)
same,GI50,[26],12.2 µM (inactive)
same,GI50,[27],5.43 µM (inactive)
same,GI50,[28],> 100 µM (inactive)
same,GI50,[29],4.16 µM (inactive)
same,GI50,[30],2.1 µM (inactive)
same,GI50,[31],4.27 µM (inactive)
same,GI50,[32],3.49 µM (inactive)
same,GI50,[33],7.43 µM (inactive)
same,GI50,[59],23.2 µM (inactive)
same,GI50,[34],5 µM (inactive)
same,GI50,[35],4.6 µM (inactive)
same,GI50,[36],12.2 µM (inactive)
same,GI50,[37],5.16 µM (inactive)
same,GI50,[38],8.11 µM (inactive)
same,GI50,[56],> 100 µM (inactive)
same,GI50,[39],42.9 µM (inactive)
same,GI50,[40],21.5 µM (inactive)
same,GI50,[41],7.03 µM (inactive)
same,GI50,[42],8.2 µM (inactive)
same,GI50,[43],4.18 µM (inactive)
same,GI50,[44],27.3 µM (inactive)
same,GI50,[57],2.23 µM (inactive)
same,GI50,[45],6.44 µM (inactive)
same,GI50,[46],> 24.2 µM (inactive)
same,GI50,[47],1.7 µM (inactive)
same,GI50,[48],4.74 µM (inactive)
same,GI50,[49],19.5 µM
same,GI50,[58],84.1 µM (inactive)
same,GI50,[50],18.5 µM (inactive)
